Data on 34 compounds can be found in patent US12503444B2, “Compound containing benzene ring and application thereof” (WUHAN LL SCIENCE AND TECHNOLOGY DEVELOPMENT CO., LTD., priority 2019, dated 2025).

What is called IC50 is the concentration that inhibits the measured activity by half.

Where only a bound is given, the exact number is not on record here.

For the first test, the target named is T1, hP2X4 (human purinergic P2X receptor subtype 4) (Homo sapiens, UniProt Q99571).
T1 sequence (Q99571 1-404 isoform Q99571-2): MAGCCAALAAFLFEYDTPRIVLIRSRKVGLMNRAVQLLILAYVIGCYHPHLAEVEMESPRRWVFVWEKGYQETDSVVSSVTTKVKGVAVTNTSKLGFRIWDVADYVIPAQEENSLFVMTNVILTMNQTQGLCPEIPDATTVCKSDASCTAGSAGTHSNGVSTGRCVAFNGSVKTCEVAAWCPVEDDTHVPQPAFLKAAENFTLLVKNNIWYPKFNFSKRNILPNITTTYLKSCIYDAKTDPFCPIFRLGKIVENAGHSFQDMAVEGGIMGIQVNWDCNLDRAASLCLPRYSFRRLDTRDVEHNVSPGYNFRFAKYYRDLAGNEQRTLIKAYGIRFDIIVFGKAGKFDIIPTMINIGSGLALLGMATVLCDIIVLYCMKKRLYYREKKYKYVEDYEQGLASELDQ
The test is described as follows: FLIPR assay of intracellular calcium increase induced by activation of hP2X4 expressed in HEK293 cells (agonist BZ-ATP 2.5 μM). The class given is cell-based. As to conditions: HEK293 cells stably expressing hP2X4, FLIPR, class symbols, read-out: P2X4 IC50. As to the method: The antagonist property of the compounds disclosed herein was determined using the FLIPR (fluorescence imaging plate reader) method, wherein the compounds are inhibitors for the intracellular calcium increase induced by activation of hP2X4 (human purinergic P2X receptor subtype 4, accession No. NM_001256796.2) expressed in HEK293 cells (human renal epithelial cell line, ATCC).
HEK293 cells stably expressing hP2X4 were cultured in DMEM high glucose medium containing 10% FBS (fetal bovine serum, Biosera, FB-1058/500), 1% penicillin-streptomycin (Gibco, 15140-122) and 1 mg/mL G418 (CABIOCHE, 345810) in a cell incubator (37° C., […]). Cells at 400,000 cells/mL were seeded into a 384-well plate (10,000 cells/well) 18-24 h prior to the FLIPR experiment and then incubated overnight in a cell incubator. On the day of the experiment, the medium was discarded and the cells were washed in an FLIPR buffer (0.3 mL of probenecid (Thermo, P36400), 0.6 mL of 1 M HEPES (Invitrogen, 15630080) and 29.1 mL of HBSS (Invitrogen, 14065056) per 30 mL of the buffer). Each well was added with 20 μL of 0.5× Calcium 6 fluorescent dye (Molecular Devices, R8190) and then the cells were subjected to dye-loading incubation at 37° C. for 1.5 h. Each well was added with 10 μL of respective test compound (dissolved in DMSO at a concentration of 10 mM and serially diluted with buffer) or vehicle and the mixture was equilibrated for 30 min at room temperature. The cell plate was then placed in the FLIPR for baseline fluorescence measurements (excitation at 485 nm and emission at 525-535 nm). An agonist (BZ-ATP (Sigma, B6396) at a final concentration of 2.5 μM) or a vehicle (ultrapure water) was then added at 10 μL/well, fluorescence values were measured for 2 min at 1-second intervals, and finally the output fluorescence counts were analyzed.
(In general: Calcium assays in cells follow changes in intracellular calcium, usually with a dye or a luminescent sensor.)
Regarding `Cc1ccc(Cn2cc3c(S(N)(=O)=O)cc(NC(=O)Cc4ccccc4Cl)cc3n2)cc1` [Compound 92, 2-(2-chlorophenyl)-N-(2-(4-methylbenzyl)-4-sulfamoyl-2H-indazol-6-yl)acetamide], the IC50 was at most 10 nM. With `COc1ccc(Cn2cc3c(S(N)(=O)=O)cc(NC(=O)Cc4ccccc4Cl)cc3n2)c(Br)c1` [Compound 87], the IC50 was at most 10 nM. Regarding `NS(=O)(=O)c1cc(NC(=O)CC2CCCCC2O)cc2nn(C(F)F)cc12` (stereo not shown) [Compound 136, N-(2-(difluoromethyl)-4-sulfamoyl-2H-indazol-6-yl)-2-(2-hydroxycyclohexyl)acetamide], the IC50 fell in the range of 200 to 5000 nM. The same measure, in the same setting: next, `COc1ccc(Cn2cc3c(S(N)(=O)=O)cc(NC(=O)Cc4ccccc4Cl)cc3n2)cc1F` [Compound 82]: at most 10 nM; `CC(C)C(=O)n1cc2c(S(N)(=O)=O)cc(NC(=O)Cc3ccccc3Cl)cc2n1` [Compound 41, 2-(2-chlorophenyl)-N-(2-isobutyryl-4-sulfamoyl-2H-indazol-6-yl)acetamide]: 10 to 50 nM. For the compound `Nc1ccc(Cn2ncc3c(S(N)(=O)=O)cc(NC(=O)Cc4ccccc4Cl)cc32)cc1` [Compound 95A, N-(1-(4-aminobenzyl)-4-sulfamoyl-1H-indazol-6-yl)-2-(2-chlorophenyl)acetamide], the IC50 is at most 10 nM. In the case of `NS(=O)(=O)c1cc(NC(=O)Cc2ccccc2Cl)cc2cn(CCO)nc12` [Compound 48-A, 2-(2-chlorophenyl)-N-(2-(2-hydroxyethyl)-7-sulfamoyl-2H-indazol-5-yl)acetamide], the concentration for half-maximal inhibition (IC50) fell in the range of 200 to 5000 nM.

Consider “N-(4-(N,N-bis(4-methoxybenzyl)sulfamoyl)-1-(4-(trifluoromethyl)benzyl)-1H-indazol-6-yl)-2-(2-chlorophenyl)acetamide [Compound 90A]”, for which the IC50 is at most 10 nM. On the same count and under the same terms, next, `NS(=O)(=O)c1cc(NC(=O)Cc2ccccc2Cl)cc2c1cnn2Cc1ccc(Cl)cc1` [Compound 89A, N-(1-(4-chlorobenzyl)-4-sulfamoyl-1H-indazol-6-yl)-2-(2-chlorophenyl)acetamide]: at most 10 nM. Still for that read-out and setting: with `COc1ccc(Cn2cc3c(S(C)(=N)=O)cc(NC(=O)Cc4ccccc4Cl)cc3n2)cc1` (stereo not shown) [Compound 137, 2-(2-chlorophenyl)-N-(2-(4-methoxybenzyl)-4-(S-methylsulfonylimino)-2H-indazol-6-yl)acetamide] the figure was 200 to 5000 nM; with `C=CCn1cc2c(S(N)(=O)=O)cc(NC(=O)Cc3ccccc3Cl)cc2n1` [Compound 14-A], at most 10 nM. On the same count and under the same terms, next, `NS(=O)(=O)c1cc(NC(=O)Cc2ccccc2Cl)cc2c1cnn2-c1ccc(Cl)cc1` [Compound 45, 2-(2-chlorophenyl)-N-(1-(4-chlorophenyl)-4-sulfamoyl-1H-indazol-6-yl)acetamide]: 10 to 50 nM. On to `NS(=O)(=O)c1cc(NC(=O)Cc2ccccc2Cl)cc2c1cnn2C(=O)c1ccc(F)cc1` [Compound 42-B, 2-(2-chlorophenyl)-N-(1-(4-fluorobenzoyl)-4-sulfamoyl-1H-indazol-6-yl)acetamide], for which the IC50 was 200 to 5000 nM. Same read-out and setting: with `CC(C)(F)n1cc2c(S(N)(=O)=O)cc(NC(=O)Cc3ccccc3Cl)cc2n1` [Compound 13, 2-(2-chlorophenyl)-N-(2-(2-fluoropropan-2-yl)-4-sulfamoyl-2H-indazol-6-yl)acetamide] the figure was 10 to 50 nM. For `NS(=O)(=O)c1cc(NC(=O)Cc2ccccc2Cl)cc2nn(CCC3CC3)cc12` [Compound 33, 2-(2-chlorophenyl)-N-(2-(2-cyclopropylethyl)-4-sulfamoyl-2H-indazol-6-yl)acetamide], the IC50 is at most 10 nM.

As to “2-(2-chlorophenyl)-N-(1-(2-hydroxyethyl)-4-sulfamoyl-2H-indazol-6-yl)acetamide [Compound 27-B]”, the IC50 lay within 50 to 200 nM. For the compound `NS(=O)(=O)c1cc(NC(=O)Cc2ccccc2Cl)cc2c1cnn2C(F)F` [Compound 43, 2-(2-chlorophenyl)-N-(1-(difluoromethyl)-4-sulfamoyl-1H-indazol-6-yl)acetamide], the half-inhibitory concentration (IC50) fell in the range of 10 to 50 nM. On the same count and under the same terms, next, `COc1ccc(Cn2cc3c(S(N)(=O)=O)cc(NC(=O)Cc4ccccc4Cl)cc3n2)c(Cl)c1` [Compound 86]: at most 10 nM. As to `COCCOc1cccc(CC(=O)Nc2cc(S(N)(=O)=O)c3cn(C(F)F)nc3c2)c1` [Compound 116, N-(2-(difluoromethyl)-4-sulfamoyl-2H-indazol-6-yl)-2-(3-(2-methoxyethoxy)phenyl)acetamide], the IC50 was in the range of 200 to 5000 nM. `COc1ccccc1CC(=O)Nc1cc(S(C)(=N)=O)c2cn(Cc3ccc(F)cc3)nc2c1` (stereo not shown) [Compound 140, N-(2-(4-fluorophenylmethyl)-4-(S-methylsulphonimidoyl)-2H-indazol-6-y)-2-(2-methoxyphenyl)acetamide]: the IC50 was in the range of 200 to 5000 nM. Regarding `COc1cnccc1Cn1cc2c(S(N)(=O)=O)cc(NC(=O)Cc3ccccc3Cl)cc2n1` [Compound 39, 2-(2-chlorophenyl)-N-(2-((3-methoxypyridin-4-yl)methyl)-4-sulfamoyl-2H-indazol-6-yl)acetamide], the IC50 was 10 to 50 nM.

For the compound `CC(C)C(F)(F)n1cc2c(S(N)(=O)=O)cc(NC(=O)Cc3ccccc3Cl)cc2n1` [Compound 23, 2-(2-chlorophenyl)-N-(2-(1,1-difluoro-2-methylpropyl)-4-sulfamoyl-2H-indazol-6-yl)acetamide], the IC50 was 10 to 50 nM. Same read-out and setting: with `NS(=O)(=O)c1cc(NC(=O)Cc2ccccc2Cl)cc2nc(C3CC3)[nH]c12` [Compound 52, 2-(2-chlorophenyl)-N-(2-cyclopropyl-7-sulfamoyl-1H-benzo[d]imidazol-5-yl)acetamide] the figure was 200 to 5000 nM; with `COCCn1cc2c(S(N)(=O)=O)cc(NC(=O)Cc3ccccc3Cl)cc2n1` [Compound 25, 2-(2-chlorophenyl)-N-(2-(2-methoxyethyl)-4-sulfamoyl-2H-indazol-6-yl)acetamide], 10 to 50 nM.

For `NS(=O)(=O)c1cc(NC(=O)Cc2ccccc2Cl)cc2c1ncn2-c1ccc(Cl)cc1` [Compound 55, 2-(2-chlorophenyl)-N-(1-(4-chlorophenyl)-4-sulfamoyl-1H-benzo[d]imidazol-6-yl)acetamide], the 50% inhibitory concentration (IC50) was 10 to 50 nM. In the case of `COc1ccc(Cn2cc3c(S(N)(=O)=O)cc(NC(=O)Cc4ccccc4Cl)cc3n2)c(F)c1` [Compound 85], the half-inhibitory concentration (IC50) is at most 10 nM. Turning to `COc1ccccc1Cn1ncc2c(S(N)(=O)=O)cc(NC(=O)Cc3ccccc3Cl)cc21` [Compound 37-B, 2-(2-chlorophenyl)-N-(1-(2-methoxybenzyl)-4-sulfamoyl-1H-indazol-6-yl)acetamide], the 50% inhibitory concentration (IC50) lay within 10 to 50 nM. With “N-(2-(4-chlorobenzyl)-4-sulfamoyl-2H-indazol-6-yl)-2-(2-chlorophenyl)acetamide [Compound 89]”, the IC50 is at most 10 nM. Still for that read-out and setting: with `Nc1ccc(Cn2cc3c(S(N)(=O)=O)cc(NC(=O)Cc4ccccc4Cl)cc3n2)cc1` [Compound 95, N-(2-(4-aminobenzyl)-4-sulfamoyl-2H-indazol-6-yl)-2-(2-chlorophenyl)acetamide] the figure was at most 10 nM; with “N-(4-(N,N-bis(4-methoxybenzyl)sulfamoyl)-1-(4-fluorobenzyl)-1H-indazol-6-yl)-2-(2-chlorophenyl)acetamide [Compound 88A]”, at most 10 nM; with `CC(C)n1ncc2c(S(N)(=O)=O)cc(NC(=O)Cc3ccccc3Cl)cc21` [Compound 6-B, 2-(2-chlorophenyl)-N-(1-isopropyl-4-sulfamoyl-1H-indazol-6-yl)acetamide], 10 to 50 nM.

With `NS(=O)(=O)c1cc(NC(=O)Cc2ccccc2Cl)cc2nn(C(=O)C3CC3)cc12` [Compound 16-B, 2-(2-chlorophenyl)-N-(2-(cyclopropylcarbonyl)-4-sulfamoyl-2H-indazol-6-yl)acetamide], the IC50 is at most 10 nM.

For the compound `NS(=O)(=O)c1cc(NC(=O)Cc2ccccc2Cl)cc2c1CN(C(=O)c1ccc(F)cc1)C2` [Compound 131, 2-(2-chlorophenyl)-N-(2-(4-fluorobenzoyl)-7-sulfamoylisoindolin-5-yl)acetamide], the half-inhibitory concentration (IC50) was 10 to 50 nM.

Still in this test, the particulars now being: HEK293 cells stably expressing hP2X4, FLIPR, numeric values, read-out: P2X4 IC50.
On to `NS(=O)(=O)c1cc(NC(=O)Cc2ccccc2Cl)cc2nn(CC3CC3)cc12` [Compound 15-A, 2-(2-chlorophenyl)-N-(2-(cyclopropylmethyl)-4-sulfonamido-2H-indazol-6-yl)acetamide], for which the 50% inhibitory concentration (IC50) is 119 nM.
